Literature values as cited in patent US20200178572A1 (priority 2017, published 2020).

Conditions: in vivo

In the case of `CC1=CC[C@H]2C[C@@H]1C2(C)C` [α-Pinene, (1S,5S)-2,6,6-Trimethylbicyclo[3.1.1]hept-2-ene], the human pulmonary uptake is listed as 60%.
